In patent publication US10214519B2, “Phosphatidylinositol 3-kinase inhibitors” (Gilead Sciences, Inc., priority 2016, dated 2019) one finds IC50 data, which are given here for 32 compounds.

Structures are written as SMILES.

Usually IC50 stands for the concentration at which inhibition is half-maximal.

In this assay the target is PI3Kβ (Homo sapiens (Human), UniProt P42338). Put plainly: PI3K isoform TR-FRET enzymatic assay (PI3Kβ). The format is biochemical. The settings on record: 2× Km ATP, 30 minutes at 25° C. In a few lines: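 IC50 came from four-parameter dose-response fits, normalized between DMSO and 1 μM wortmannin controls. The read-out was TR-FRET (615/665 nm) of PIP3 displacing fluorescent PIP3 from Europium GRP-1 after 10 mM EDTA termination. Compounds were incubated with purified heterodimeric PI3Kβ for 30 min at 25° C.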
Chain of PI3Kβ (P42338 whole entry, canonical isoform): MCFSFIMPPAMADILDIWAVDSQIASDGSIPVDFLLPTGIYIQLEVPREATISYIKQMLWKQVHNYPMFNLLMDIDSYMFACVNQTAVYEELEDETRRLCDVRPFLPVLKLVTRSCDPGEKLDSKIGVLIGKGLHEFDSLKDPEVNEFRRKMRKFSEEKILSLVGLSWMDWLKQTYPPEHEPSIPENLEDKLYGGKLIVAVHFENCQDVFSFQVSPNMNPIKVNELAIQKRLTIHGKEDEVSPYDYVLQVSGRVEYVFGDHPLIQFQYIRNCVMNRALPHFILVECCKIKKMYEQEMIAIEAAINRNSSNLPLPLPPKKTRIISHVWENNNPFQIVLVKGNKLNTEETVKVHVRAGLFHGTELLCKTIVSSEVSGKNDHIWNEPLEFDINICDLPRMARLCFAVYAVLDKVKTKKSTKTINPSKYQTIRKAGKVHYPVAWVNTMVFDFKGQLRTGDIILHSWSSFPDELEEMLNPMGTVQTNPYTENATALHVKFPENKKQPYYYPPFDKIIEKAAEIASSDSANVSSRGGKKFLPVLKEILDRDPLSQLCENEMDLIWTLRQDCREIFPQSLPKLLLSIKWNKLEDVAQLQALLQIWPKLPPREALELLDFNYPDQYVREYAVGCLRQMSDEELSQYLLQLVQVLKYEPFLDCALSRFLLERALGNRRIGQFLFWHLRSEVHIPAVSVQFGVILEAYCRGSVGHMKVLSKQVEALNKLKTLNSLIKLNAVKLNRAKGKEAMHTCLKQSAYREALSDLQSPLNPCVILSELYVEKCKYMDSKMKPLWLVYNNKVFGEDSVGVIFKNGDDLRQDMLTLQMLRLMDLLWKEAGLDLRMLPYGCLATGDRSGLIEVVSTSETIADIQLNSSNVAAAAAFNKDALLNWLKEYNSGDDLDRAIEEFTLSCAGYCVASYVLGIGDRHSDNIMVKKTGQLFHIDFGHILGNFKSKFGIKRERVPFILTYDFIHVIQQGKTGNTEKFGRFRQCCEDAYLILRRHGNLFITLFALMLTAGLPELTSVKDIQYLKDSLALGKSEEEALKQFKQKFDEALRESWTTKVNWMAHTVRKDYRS
Chain of PI3Kβ (P27986 whole entry partner, canonical isoform): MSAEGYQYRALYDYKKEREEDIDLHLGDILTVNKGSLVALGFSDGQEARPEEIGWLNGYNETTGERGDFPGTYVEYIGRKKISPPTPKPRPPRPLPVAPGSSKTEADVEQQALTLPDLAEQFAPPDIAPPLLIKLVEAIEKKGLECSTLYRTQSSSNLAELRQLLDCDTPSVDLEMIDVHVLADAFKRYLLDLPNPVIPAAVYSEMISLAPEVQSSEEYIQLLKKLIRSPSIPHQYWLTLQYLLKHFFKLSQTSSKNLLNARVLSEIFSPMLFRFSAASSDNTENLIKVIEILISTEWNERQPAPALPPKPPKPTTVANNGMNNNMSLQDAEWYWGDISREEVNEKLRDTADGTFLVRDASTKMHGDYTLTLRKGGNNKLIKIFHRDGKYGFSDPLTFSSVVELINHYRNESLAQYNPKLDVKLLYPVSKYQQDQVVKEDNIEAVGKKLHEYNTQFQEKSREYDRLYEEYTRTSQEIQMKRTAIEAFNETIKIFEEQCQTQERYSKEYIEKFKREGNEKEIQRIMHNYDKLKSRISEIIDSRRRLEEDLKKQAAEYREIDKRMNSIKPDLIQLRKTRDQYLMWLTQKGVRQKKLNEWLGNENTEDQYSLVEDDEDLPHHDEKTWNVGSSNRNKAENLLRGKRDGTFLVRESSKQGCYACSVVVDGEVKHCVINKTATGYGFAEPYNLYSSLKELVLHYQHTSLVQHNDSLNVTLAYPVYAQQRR
(In general: In TR-FRET formats the signal depends on donor and acceptor labels being close together.)

On to `CCc1nc2c(-c3c[nH]cn3)cc(N3CCOCC3)cc2n1-c1ccnc2c(Cl)cccc12` [Example 331, 4-[3-(8-chloroquinolin-4-yl)-2-ethyl-7-(1H-imidazol-4-yl)benzimidazol-5-yl]morpholine], for which inhibition was half-maximal at 7 nM (IC50).

In turn, `Cc1cccc2nccc(-n3c(C)nc4c(-c5nnc[nH]5)cc(N5CCOCC5)cc43)c12` (atropisomer, axis not shown) [Compound 363, 4-[2-methyl-3-(5-methylquinolin-4-yl)-7-(4H-1,2,4-triazol-3-yl)benzimidazol-5-yl]morpholine] registered an IC50 of 8000 nM.

Compound `Clc1cccc2c(-n3cnc4c(-c5c[nH]cn5)cc(N5CCOCC5)cc43)ccnc12` [Example 332, 4-(1-(8-chloroquinolin-4-yl)-4-(1H-imidazol-4-yl)-1H-benzo[d]imidazol-6-yl)morpholine] displayed a half-maximal inhibitory concentration (IC50) of 2 nM.

On to `Fc1ccc(Cl)c2nccc(-n3c(C4CC4)nc4c(-c5ncco5)cc(N5CCOCC5)cc43)c12` [Example 242, 4-[3-(8-chloro-5-fluoroquinolin-4-yl)-2-cyclopropyl-7-(1,3-oxazol-2-yl)benzimidazol-5-yl]morpholine], for which the midpoint of inhibition, the IC50, lay at 6 nM.

With `Cc1nc2c(-c3ccc(Cl)s3)cc(N3CCOCC3)cc2n1-c1ccnc2c(Cl)cccc12` [Example 267, 4-[3-(8-chloroquinolin-4-yl)-7-(5-chlorothiophen-2-yl)-2-methylbenzimidazol-5-yl]morpholine], inhibition was half-maximal at 2100 nM (IC50).

For `Cc1nc2c(-c3ccc(C#N)s3)cc(N3CCOCC3)cc2n1-c1ccnc2c(Cl)cccc12` [Example 273, 5-[1-(8-chloroquinolin-4-yl)-2-methyl-6-morpholin-4-ylbenzimidazol-4-yl]thiophene-2-carbonitrile], the IC50 was 2600 nM.

Regarding `CCCc1nc2c(-c3nnc[nH]3)cc(N3CCOCC3)cc2n1-c1ccnc2c(F)cccc12` (atropisomer, axis not shown) [Compound 354, 4-[3-(8-fluoroquinolin-4-yl)-2-propyl-7-(4H-1,2,4-triazol-3-yl)benzimidazol-5-yl]morpholine], the IC50 amounted to 8 nM.

Consider `Cc1nc2c(-c3nnc[nH]3)cc(N3CCOCC3)cc2n1-c1c(-c2nnc[nH]2)cnc2ccccc12` [Example 392, 4-(1-(3-(4H-1,2,4-triazol-3-yl)quinolin-4-yl)-2-methyl-4-(4H-1,2,4-triazol-3-yl)-1H-benzo[d]imidazol-6-yl)morpholine], for which the midpoint of inhibition, the IC50, lay at 9 nM.

`Fc1cccc2c(-n3cnc4c(-c5nnc[nH]5)cc(N5CCOCC5)cc43)ccnc12` [Example 95, 4-[3-(8-fluoroquinolin-4-yl)-7-(4H-1,2,4-triazol-3-yl)benzimidazol-5-yl]morpholine] displayed an IC50 of 6 nM.

For `Cc1nc2c(-c3nnc[nH]3)cc(N3CCOCC3)cc2n1-c1ccnc2c(F)c(F)ccc12` (atropisomer, axis not shown) [Compound 353, 4-[3-(7,8-difluoroquinolin-4-yl)-2-methyl-7-(4H-1,2,4-triazol-3-yl)benzimidazol-5-yl]morpholine], it took 270 nM to reach half-maximal inhibition (IC50).

In turn, `Cc1nnc(-c2cc(N3CCOCC3)cc3c2nc(C)n3-c2c(Cl)cnc3c(Cl)cccc23)[nH]1` [Example 157, 4-(1-(3,8-dichloroquinolin-4-yl)-2-methyl-4-(5-methyl-4H-1,2,4-triazol-3-yl)-1H-benzo[d]imidazol-6-yl)morpholine] had an IC50 of 47 nM.

`CCc1nc2c(-c3cnc[nH]3)cc(N3CCOCC3)cc2n1-c1ccnc2c(F)ccc(F)c12` [Example 337, 4-[3-(5,8-difluoroquinolin-4-yl)-2-ethyl-7-(1H-imidazol-5-yl)benzimidazol-5-yl]morpholine] registered an IC50 of 20 nM.

Take `CCCc1nc2c(-c3ccn[nH]3)cc(N3CCOCC3)cc2n1-c1ccnc2c(F)ccc(F)c12` (atropisomer, axis not shown) [Compound 369, 4-(1-(5,8-difluoroquinolin-4-yl)-2-propyl-4-(1H-pyrazol-5-yl)-1H-benzo[d]imidazol-6-yl)morpholine]: the IC50 was > 10000 nM.

Compound `Cc1nc2c(-c3nnc[nH]3)cc(N3CCOCC3)cc2n1-c1ccnc2c(C(F)F)cccc12` [Example 82, 4-[3-[8-(difluoromethyl)quinolin-4-yl]-2-methyl-7-(4H-1,2,4-triazol-3-yl)benzimidazol-5-yl]morpholine] gave an IC50 of 9 nM.

In the case of `Cc1nc2c(-c3cnc(Cl)[nH]3)cc(N3CCOCC3)cc2n1-c1ccnc2c(F)ccc(F)c12` (atropisomer, axis not shown) [Compound 372, 4-(4-(2-chloro-1H-imidazol-5-yl)-1-(5,8-difluoroquinolin-4-yl)-2-methyl-1H-benzo[d]imidazol-6-yl)morpholine], the half-maximal inhibitory concentration (IC50) worked out at 6 nM.

Take `Cc1nc2c(-c3ccn(S(C)(=O)=O)c3)cc(N3CCOCC3)cc2n1-c1ccnc2c(Cl)cccc12` [Example 264, 4-[3-(8-chloroquinolin-4-yl)-2-methyl-7-(1-methylsulfonylpyrrol-3-yl)benzimidazol-5-yl]morpholine]: 770 nM corresponded to half-maximal inhibition (IC50).

`Clc1cccc2c(-n3c(-c4ccn[nH]4)nc4c(-c5nnc[nH]5)cc(N5CCOCC5)cc43)ccnc12` [Example 117, 4-[3-(8-chloroquinolin-4-yl)-2-(1H-pyrazol-5-yl)-7-(4H-1,2,4-triazol-3-yl)benzimidazol-5-yl]morpholine] showed an IC50 of 15 nM.

Compound `CCc1nc2c(-c3cnc[nH]3)cc(N3CCOCC3)cc2n1-c1ccnc2c(F)cccc12` [Example 209, 4-[2-ethyl-3-(8-fluoroquinolin-4-yl)-7-(1H-imidazol-5-yl)benzimidazol-5-yl]morpholine] had an IC50 of 15 nM.

For the compound `Cc1nnc(-c2cc(N3CCOCC3)cc3c2nc(CC(C)C)n3-c2ccnc3c(Cl)cccc23)[nH]1` [Example 2, 4-(1-(8-chloroquinolin-4-yl)-2-isobutyl-4-(5-methyl-4H-1,2,4-triazol-3-yl)-1H-benzo[d]imidazol-6-yl)morpholine], the IC50 is 24 nM.

Consider `Cc1nnc(-c2cc(N3CCOCC3)cc3c2nc(C(C)C)n3-c2ccnc3c(Cl)cccc23)[nH]1` [Example 14, 4-(1-(8-chloroquinolin-4-yl)-2-isopropyl-4-(5-methyl-4H-1,2,4-triazol-3-yl)-1H-benzo[d]imidazol-6-yl)morpholine], for which 49 nM corresponded to half-maximal inhibition (IC50).

As to `Cc1nc2c(-c3nnc[nH]3)cc(N3CCOCC3)cc2n1-c1ccnc2cc(F)ccc12` [Example 90, 4-[3-(7-fluoroquinolin-4-yl)-2-methyl-7-(4H-1,2,4-triazol-3-yl)benzimidazol-5-yl]morpholine], the IC50 came out at 11 nM.

`Cc1nc2c(-c3cnc(Cl)[nH]3)cc(N3CCOCC3)cc2n1-c1ccnc2c(Cl)ccc(F)c12` [Example 288, 4-[3-(8-chloro-5-fluoroquinolin-4-yl)-7-(2-chloro-1H-imidazol-5-yl)-2-methylbenzimidazol-5-yl]morpholine]: inhibition was half-maximal at 5 nM (IC50).

For the compound `Cc1nc2c(-c3cnc(Cl)[nH]3)cc(N3CCOCC3)cc2n1-c1ccnc2c(Cl)c(F)ccc12` [Example 294, 4-[3-(8-chloro-7-fluoroquinolin-4-yl)-7-(2-chloro-1H-imidazol-5-yl)-2-methylbenzimidazol-5-yl]morpholine], the IC50 was found to be 6 nM.

The compound `Clc1ncc(-c2cc(N3CCOCC3)cc3c2nc(C2COC2)n3-c2ccnc3c(Cl)cccc23)[nH]1` [Example 291, 4-[7-(2-chloro-1H-imidazol-5-yl)-3-(8-chloroquinolin-4-yl)-2-(oxetan-3-yl)benzimidazol-5-yl]morpholine] had an IC50 of 27 nM.

Regarding `Cc1nc2c(-c3ccnn3C)cc(N3CCOCC3)cc2n1-c1ccnc2c(Cl)cccc12` [Example 269, 4-[3-(8-chloroquinolin-4-yl)-2-methyl-7-(2-methylpyrazol-3-yl)benzimidazol-5-yl]morpholine], the IC50 worked out at 7000 nM.

`Cc1nc2c(-c3nnc(Cl)[nH]3)cc(N3CCOCC3)cc2n1-c1ccnc2c(Cl)cccc12` (atropisomer, axis not shown) [Compound 359, 4-[3-(8-chloroquinolin-4-yl)-7-(5-chloro-4H-1,2,4-triazol-3-yl)-2-methylbenzimidazol-5-yl]morpholine] displayed an IC50 of 1200 nM.

With `Cc1nc2c(-c3ncc[nH]3)cc(N3CCOCC3)cc2n1-c1ccnc2c(Cl)cccc12` [Example 175, 4-[3-(8-chloroquinolin-4-yl)-7-(1H-imidazol-2-yl)-2-methylbenzimidazol-5-yl]morpholine], the IC50 worked out at 10 nM.

`CCCc1nc2c(-c3nnc(C)[nH]3)cc(N3CCOCC3)cc2n1-c1ccnc2cc(F)ccc12` [Example 21, 4-(1-(7-fluoroquinolin-4-yl)-4-(5-methyl-4H-1,2,4-triazol-3-yl)-2-propyl-1H-benzo[d]imidazol-6-yl)morpholine]: the IC50 is 130 nM.

On to `Cc1nc2c(-c3nccs3)cc(N3CCOCC3)cc2n1-c1ccnc2c(Cl)cccc12` [Example 244, 4-[3-(8-chloroquinolin-4-yl)-2-methyl-7-(1,3-thiazol-2-yl)benzimidazol-5-yl]morpholine], for which the IC50 is 9 nM.

Turning to `CCc1nc2c(-c3nnc[nH]3)cc(N3CCOCC3)cc2n1-c1c(-c2nnc[nH]2)cnc2ccccc12` [Example 391, 4-(1-(3-(4H-1,2,4-triazol-3-yl)quinolin-4-yl)-2-ethyl-4-(4H-1,2,4-triazol-3-yl)-1H-benzo[d]imidazol-6-yl)morpholine], the 50% inhibitory concentration (IC50) stood at 10 nM.

`CCCc1nc2c(-c3cnc(Cl)[nH]3)cc(N3CCOCC3)cc2n1-c1ccnc2c(Cl)cccc12` [Example 281, 4-[7-(2-chloro-1H-imidazol-5-yl)-3-(8-chloroquinolin-4-yl)-2-propylbenzimidazol-5-yl]morpholine] had an IC50 of 15 nM.

`Cc1nnc(-c2cc(N3CCOCC3)cc3c2nc(C)n3-c2cc(N3CCNCC3)nc3ccccc23)[nH]1` [Example 169, 4-(2-methyl-4-(5-methyl-4H-1,2,4-triazol-3-yl)-1-(2-(piperazin-1-yl)quinolin-4-yl)-1H-benzo[d]imidazol-6-yl)morpholine] registered an IC50 of 16 nM.
